Data reported in ChEMBL document CHEMBL1201862, “PubChem BioAssay data set” (2004).
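Interpolation was linear, between the two tested concentrations surrounding the appropriate level; five concentrations were tested over 48 hours in 96-well plates. Abbreviation: GI50, concentration required for 50% inhibition of growth.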 Active and inactive are the calls of the source. Cut-off read from the data, not from the text of the source: active = GI50 up to about 1.1 µM and inactive = higher.

Assays:
Assay in all cases: NCI-60 cell line screen, 48 h
COLO 205 = system: COLO 205
CAKI-1 = system: CAKI-1
ACHN = system: ACHN
MDA-MB-435 = system: MDA-MB-435
UACC-62 = system: UACC-62
SK-MEL-28 = system: SK-MEL-28
Hs-578T = system: Hs-578T
SK-MEL-2 = system: SK-MEL-2
OVCAR-8 = system: OVCAR-8
TK-10 = system: TK-10
OVCAR-3 = system: OVCAR-3
A498 = system: A498
HCT-15 = system: HCT-15
KM12 = system: KM12
OVCAR-4 = system: OVCAR-4
U-251 = system: U-251
MOLT-4 = system: MOLT-4
SNB-75 = system: SNB-75
IGROV-1 = system: IGROV-1
RPMI-8226 = system: RPMI-8226

Row | SMILES | GI50 (COLO 205) | GI50 (CAKI-1) | GI50 (ACHN) | GI50 (MDA-MB-435) | GI50 (UACC-62) | GI50 (SK-MEL-28) | GI50 (Hs-578T) | GI50 (SK-MEL-2) | GI50 (OVCAR-8) | GI50 (TK-10) | GI50 (OVCAR-3) | GI50 (A498) | GI50 (HCT-15) [µM] | GI50 (KM12) | GI50 (OVCAR-4) | GI50 (U-251) | GI50 (MOLT-4) | GI50 (SNB-75) | GI50 (IGROV-1) | GI50 (RPMI-8226)
1 | CCN(CC)C(=S)SS(=O)(=O)c1ccc(C)cc1 | 22.3 µM (inactive) | 17.7 µM (inactive) | 34.7 µM (inactive) | 31.5 µM (inactive) | 16.2 µM (inactive) | 18.5 µM (inactive) | 75.5 µM (inactive) | 50.4 µM (inactive) | 19.5 µM (inactive) | > 100 µM (inactive) | 39.6 µM (inactive) | > 100 µM (inactive) | 36.7 | 14.2 µM (inactive) | 43.2 µM (inactive) | 23.3 µM (inactive) |  |  |  | 
2 | CCOc1ccccc1/C=C1\NC(=O)N(/C=C2\C(=O)Oc3ccccc3C2=O)C1=O | 47.4 µM (inactive) | 99.1 µM (inactive) | 50.6 µM (inactive) | 42.6 µM (inactive) | 32.8 µM (inactive) | 62.4 µM (inactive) | 46.7 µM (inactive) | 45.9 µM (inactive) | 80.9 µM (inactive) | 24.8 µM (inactive) | 30.8 µM (inactive) |  | 53.8 | 43 µM (inactive) | 44.2 µM (inactive) | 47 µM (inactive) | 26.7 µM (inactive) | 69.2 µM (inactive) | 35.7 µM (inactive) | 
3 | Cc1ccc2c(c1C)CC1(Cc3c(C)ccc(C)c3C1=O)C2=O (stereo not given) | > 100 µM (inactive) | > 100 µM (inactive) | > 100 µM (inactive) | > 100 µM (inactive) | > 100 µM (inactive) | > 100 µM (inactive) | > 100 µM (inactive) |  | > 100 µM (inactive) | > 100 µM (inactive) |  | > 100 µM (inactive) | > 100 | > 100 µM (inactive) | > 100 µM (inactive) | > 100 µM (inactive) | > 100 µM (inactive) | > 100 µM (inactive) | > 100 µM (inactive) | > 100 µM (inactive)
4 | Nc1ccccc1CC(O)C(=O)O (stereo not given) | > 100 µM (inactive) | > 100 µM (inactive) | > 100 µM (inactive) | > 100 µM (inactive) | > 100 µM (inactive) | > 100 µM (inactive) | > 100 µM (inactive) |  | > 100 µM (inactive) | > 100 µM (inactive) | > 100 µM (inactive) | > 100 µM (inactive) | > 100 | > 100 µM (inactive) |  | > 100 µM (inactive) | > 100 µM (inactive) | > 100 µM (inactive) |  | > 100 µM (inactive)
5 | COc1ccc(C=C2C(C)=NN(c3cccc(Cl)c3)C23C(Cl)C(=O)N3c2nc3ccccc3s2)cc1 (stereo not given) |  | 23.2 µM (inactive) | 21.5 µM (inactive) | 16.5 µM (inactive) |  | 9.25 µM (inactive) | 14.4 µM (inactive) | 17.4 µM (inactive) | 18.9 µM (inactive) | 26.8 µM (inactive) | 19.4 µM (inactive) | 18.5 µM (inactive) | 16.8 | 13.6 µM (inactive) | 23.9 µM (inactive) | 14.6 µM (inactive) | 15.9 µM (inactive) |  | 16.4 µM (inactive) | 2.82 µM (inactive)
6 | O=C1CSC(c2cccc([N+](=O)[O-])c2)N1c1ccc(-n2c(-c3ccccc3)nc3ccccc3c2=O)cc1 (stereo not given) | > 100 µM (inactive) | > 100 µM (inactive) | > 100 µM (inactive) | > 100 µM (inactive) | 13.9 µM (inactive) | > 100 µM (inactive) | 78.2 µM (inactive) | 56.9 µM (inactive) | > 100 µM (inactive) | > 100 µM (inactive) | > 100 µM (inactive) | > 100 µM (inactive) | 30.5 | > 100 µM (inactive) | > 100 µM (inactive) | > 100 µM (inactive) | 83.8 µM (inactive) |  | > 100 µM (inactive) | > 100 µM (inactive)
7 | CC1CN=C(Nc2ccc(F)cc2F)S1 (stereo not given) | > 100 µM (inactive) | > 100 µM (inactive) | > 100 µM (inactive) |  |  | > 100 µM (inactive) | > 100 µM (inactive) | > 100 µM (inactive) | > 100 µM (inactive) | > 100 µM (inactive) | > 100 µM (inactive) | > 100 µM (inactive) | > 100 | > 100 µM (inactive) | > 100 µM (inactive) | > 100 µM (inactive) | > 100 µM (inactive) | 70.3 µM (inactive) | > 100 µM (inactive) | > 100 µM (inactive)
8 | COC(=O)C(O)P(=O)(OC)OC (stereo not given) | > 100 µM (inactive) | > 100 µM (inactive) | > 100 µM (inactive) | > 100 µM (inactive) | > 100 µM (inactive) | > 100 µM (inactive) | > 100 µM (inactive) | > 100 µM (inactive) | > 100 µM (inactive) |  | > 100 µM (inactive) | > 100 µM (inactive) | > 100 | > 100 µM (inactive) | > 100 µM (inactive) | > 100 µM (inactive) | > 100 µM (inactive) |  | > 100 µM (inactive) | > 100 µM (inactive)
9 | Nc1cc(N)cc(Cc2ccccc2)c1 | > 100 µM (inactive) | > 100 µM (inactive) | > 100 µM (inactive) | > 100 µM (inactive) |  | > 100 µM (inactive) | > 100 µM (inactive) | > 100 µM (inactive) | > 100 µM (inactive) | > 100 µM (inactive) | > 100 µM (inactive) | > 100 µM (inactive) | > 100 | > 100 µM (inactive) | > 100 µM (inactive) | > 100 µM (inactive) | > 100 µM (inactive) |  | > 100 µM (inactive) | 
10 | NC1CNC(=O)c2cscc21 (stereo not given) | > 100 µM (inactive) | > 100 µM (inactive) | > 100 µM (inactive) | > 100 µM (inactive) | > 100 µM (inactive) | > 100 µM (inactive) | > 100 µM (inactive) |  |  |  | > 100 µM (inactive) | > 100 µM (inactive) | > 100 | > 100 µM (inactive) | > 100 µM (inactive) | > 100 µM (inactive) | > 100 µM (inactive) |  | > 100 µM (inactive) | > 100 µM (inactive)
11 | CCN(CC)CCCC(C)Nc1ccnc(/C=C/c2ccc(Cl)cc2)c1 (stereo not given) | 1.35 µM (inactive) | 2.29 µM (inactive) | 3.32 µM (inactive) | 1.56 µM (inactive) | 1.94 µM (inactive) | 1.7 µM (inactive) | 2.26 µM (inactive) | 2.11 µM (inactive) | 3.43 µM (inactive) | 2.38 µM (inactive) | 1.63 µM (inactive) |  | 1.82 | 2.02 µM (inactive) | 3.51 µM (inactive) | 1.66 µM (inactive) | 1.22 µM (inactive) | 1.77 µM (inactive) | 2.17 µM (inactive) | 1.72 µM (inactive)
12 | O=CNc1ccc(S(=O)(=O)c2ccc(NC=O)cc2)cc1 | > 100 µM (inactive) | > 100 µM (inactive) | > 100 µM (inactive) | > 100 µM (inactive) | > 100 µM (inactive) | > 100 µM (inactive) | > 100 µM (inactive) | > 100 µM (inactive) | > 100 µM (inactive) | > 100 µM (inactive) | > 100 µM (inactive) |  | > 100 | > 100 µM (inactive) | > 100 µM (inactive) | > 100 µM (inactive) | > 100 µM (inactive) | 29.7 µM (inactive) | > 100 µM (inactive) | > 100 µM (inactive)
13 | [N-]=[N+]=Nc1c(-c2ccccc2)c(=O)n(-c2ccccc2)c2ccccc12 | 62.1 µM (inactive) |  | 49.4 µM (inactive) | 60.8 µM (inactive) | 56 µM (inactive) | 94.6 µM (inactive) | 56.9 µM (inactive) |  | 90.2 µM (inactive) | > 100 µM (inactive) | 52 µM (inactive) | 77.8 µM (inactive) | 38.2 | 67.6 µM (inactive) | 64 µM (inactive) | 52.1 µM (inactive) | 75.7 µM (inactive) | 36.4 µM (inactive) | > 100 µM (inactive) | > 100 µM (inactive)
14 | Cc1ccc(OC(=O)N2C/C(=C\c3ccccc3)C(=O)/C(=C/c3ccccc3)C2)cc1 | > 68.7 µM (inactive) | 49.9 µM (inactive) | 26.7 µM (inactive) |  | 23.5 µM (inactive) | 25.7 µM (inactive) | 20.9 µM (inactive) | 42.6 µM (inactive) | 19.6 µM (inactive) | 32.1 µM (inactive) | 25.6 µM (inactive) | > 66.5 µM (inactive) | 26.3 | 16.2 µM (inactive) | 23.5 µM (inactive) | 9.25 µM (inactive) | 4.07 µM (inactive) | 23 µM (inactive) | 40.7 µM (inactive) | 0.403 µM (active)
15 | O=C(CBr)c1ccc2cc(Br)c3ccccc3c2c1 | 24.1 µM (inactive) | 18.2 µM (inactive) | 52.1 µM (inactive) | 19.9 µM (inactive) | 14.1 µM (inactive) | 25.1 µM (inactive) | 25.8 µM (inactive) | 20.6 µM (inactive) | 24.2 µM (inactive) | 21 µM (inactive) | 20.6 µM (inactive) |  | 36.1 | 17.8 µM (inactive) | 25.3 µM (inactive) | 46.3 µM (inactive) | 4.25 µM (inactive) | 25.6 µM (inactive) | 29.6 µM (inactive) | 20.3 µM (inactive)
16 | O=c1c(C(c2ccc(C(c3c(O)oc4cc(O)ccc4c3=O)c3c(O)oc4cc(O)ccc4c3=O)cc2)c2c(O)oc3cc(O)ccc3c2=O)c(O)oc2cc(O)ccc12 | 53.3 µM (inactive) | > 100 µM (inactive) |  | > 100 µM (inactive) | > 100 µM (inactive) | > 100 µM (inactive) | > 100 µM (inactive) | > 100 µM (inactive) | > 100 µM (inactive) | > 100 µM (inactive) | > 100 µM (inactive) | > 100 µM (inactive) | > 100 |  | 93.1 µM (inactive) | > 100 µM (inactive) | > 100 µM (inactive) | > 100 µM (inactive) | > 100 µM (inactive) | 
